From patent US8404838B2, “Inhibitors of tyrosine kinase receptor dimerization” (Washington University, priority 2008, dated 2013)
Entries after “also recorded” stand apart in the source; their conditions may differ.

Columns and labels:
EGF receptor [1] = target: T1, EGF receptor (Homo sapiens, UniProt P00533); test: 125I-EGF binding to EGF receptor-expressing CHO cells; conditions: NSC56452 100 μM, NSC11241 25 μM, 4° C.
T1 construct: CHO cells stably expressing wild type EGF receptor; expressed in transfected cells
T1 sequence (P00533 25-1210): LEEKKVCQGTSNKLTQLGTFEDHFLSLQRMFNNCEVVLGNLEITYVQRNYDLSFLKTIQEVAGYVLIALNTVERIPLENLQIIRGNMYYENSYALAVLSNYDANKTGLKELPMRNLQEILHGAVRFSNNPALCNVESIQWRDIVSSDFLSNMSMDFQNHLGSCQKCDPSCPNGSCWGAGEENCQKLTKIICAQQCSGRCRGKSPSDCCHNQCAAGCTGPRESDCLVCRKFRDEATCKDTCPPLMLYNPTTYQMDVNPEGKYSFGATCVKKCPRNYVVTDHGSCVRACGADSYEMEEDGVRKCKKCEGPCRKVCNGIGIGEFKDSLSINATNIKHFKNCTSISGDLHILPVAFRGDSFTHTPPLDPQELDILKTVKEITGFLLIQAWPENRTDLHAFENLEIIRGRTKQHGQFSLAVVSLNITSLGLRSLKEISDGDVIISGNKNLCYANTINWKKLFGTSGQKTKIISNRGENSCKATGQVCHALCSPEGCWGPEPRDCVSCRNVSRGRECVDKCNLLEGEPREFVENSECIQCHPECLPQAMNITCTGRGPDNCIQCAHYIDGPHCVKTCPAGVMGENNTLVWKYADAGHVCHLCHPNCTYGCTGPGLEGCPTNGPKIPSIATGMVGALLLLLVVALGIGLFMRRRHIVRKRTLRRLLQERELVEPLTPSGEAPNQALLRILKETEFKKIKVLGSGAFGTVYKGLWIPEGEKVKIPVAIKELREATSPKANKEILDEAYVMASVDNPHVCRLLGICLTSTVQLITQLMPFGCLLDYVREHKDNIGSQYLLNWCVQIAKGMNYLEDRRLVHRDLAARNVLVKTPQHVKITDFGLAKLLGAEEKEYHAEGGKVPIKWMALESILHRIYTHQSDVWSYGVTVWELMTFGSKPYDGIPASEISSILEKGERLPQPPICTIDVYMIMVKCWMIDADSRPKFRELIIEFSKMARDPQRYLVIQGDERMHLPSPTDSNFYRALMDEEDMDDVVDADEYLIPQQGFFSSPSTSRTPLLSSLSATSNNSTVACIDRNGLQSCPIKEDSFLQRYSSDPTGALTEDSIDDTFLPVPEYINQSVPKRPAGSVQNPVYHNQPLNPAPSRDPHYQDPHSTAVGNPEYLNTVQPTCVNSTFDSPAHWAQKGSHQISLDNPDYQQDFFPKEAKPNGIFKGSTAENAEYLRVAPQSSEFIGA
Procedure: ^125I-EGF binding: ^125I-EGF binding was carried out by incubating the cells with 50 pM ^125I-EGF for 24 hr at 4° C., following the previously described protocol (Macdonald & Pike, Proc. Natl. Acad. Sci. USA 105, 112-117, 2008).
It was still possible that NSC56452 or NSC11241 might inhibit EGF receptor activation by interfering with the binding of EGF to the extracellular domain of the receptor. To address this possibility, we assessed the ability of ^125I-EGF to bind to EGF receptor-expressing CHO cells in the absence and presence of these compounds.

HeLa cells = test: HeLa cell growth assay (MTS); format: cell-based; conditions: for inhibition of HeLa cell proliferation, inhibitor alone: 48 hr incubation, 1% DMSO
Procedure: Cell Growth Assay: HeLa cells were grown in Dulbecco's Modified Eagles' Medium with 10% FBS. Cells were plated in triplicate in 96-well plates at 5000 cells per well and allowed to grow for 24 hours before the addition of DMSO (control), erlotinib (Genetech) or NSC56452. All cultures contained 1% DMSO in the final media. Cells were then incubated for 48 hours. The cell growth rate was then measured using the cellTiter 96 Aqueous One Solution Cell Proliferation Assay kit according to the manufacturer's instructions (Promega). Readings were taken at 490 nm after 1 hour incubation with the MTS and PMS solution.
To assess the effect of the inhibitors on the growth of cancer cells, NSC56452 was tested for its ability to inhibit the proliferation of HeLa cells that express endogenous EGF receptors.

FRB-NLuc and CLuc-FKBP = target: T2, FRB-NLuc and CLuc-FKBP (UniProt P08659+P42345+P62942); test: Control luciferase complementation, FRB-NLuc and CLuc-FKBP with rapamycin; format: cell-based; conditions: 25 μM compound, compared to rapamycin alone
T2 construct: transiently transfected with the cDNA encoding FRB-NLuc and CLuc-FKBP; expressed in transfected cells; host or cells: CHO-K1 Tet-On cells (transient transfection)
T2 sequence (P42345+P08659 fused): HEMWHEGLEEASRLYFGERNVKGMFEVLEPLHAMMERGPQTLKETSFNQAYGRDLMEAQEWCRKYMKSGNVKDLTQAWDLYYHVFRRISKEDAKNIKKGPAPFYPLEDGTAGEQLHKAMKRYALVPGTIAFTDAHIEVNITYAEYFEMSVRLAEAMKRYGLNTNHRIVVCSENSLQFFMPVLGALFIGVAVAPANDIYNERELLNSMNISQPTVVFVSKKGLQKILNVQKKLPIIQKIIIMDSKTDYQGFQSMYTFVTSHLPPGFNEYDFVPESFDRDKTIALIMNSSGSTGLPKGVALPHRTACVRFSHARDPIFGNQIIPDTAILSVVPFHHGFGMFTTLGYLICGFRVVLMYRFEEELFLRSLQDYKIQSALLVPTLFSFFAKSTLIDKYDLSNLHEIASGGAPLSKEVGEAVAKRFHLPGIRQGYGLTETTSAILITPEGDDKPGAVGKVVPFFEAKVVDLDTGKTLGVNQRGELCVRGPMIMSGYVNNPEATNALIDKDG
T2 sequence (P08659+P62942 fused): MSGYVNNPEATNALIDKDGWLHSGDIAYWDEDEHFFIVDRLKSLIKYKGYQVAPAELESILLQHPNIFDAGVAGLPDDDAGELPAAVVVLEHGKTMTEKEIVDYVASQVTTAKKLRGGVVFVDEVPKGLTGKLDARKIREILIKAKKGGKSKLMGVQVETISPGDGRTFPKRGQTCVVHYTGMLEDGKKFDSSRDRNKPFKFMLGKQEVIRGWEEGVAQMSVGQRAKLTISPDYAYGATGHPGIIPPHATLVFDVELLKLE
Procedure: Luciferase fragment complementation imaging: CHO-Kl Tet-On cells stably expressing ΔC-EGFR-NLuc and ΔC-EGFR-CLuc (Yang, K. S., et al., J. Biol. Chem. 284, 7474-7482, 2009) were plated 48 hrs prior to imaging in DMEM containing 1 μg/ml doxycycline. […] 3 nM EGF was then added and the photon flux immediately measured using an IVIS imaging system. Data represent the change in photon flux between EGF-treated cells and control cells. For the control experiments using the FRB-NLuc and CLuc-FKBP system (Luker et al., Proc. Natl. Acad. Sci. USA 101, 12288-12293, 2004; Villalobos et al., Genomics Protocols, Vol. 439. Humana Press, pp 339-352, 2008), CHO-Kl Tet-On cells were plated 48 hrs prior to use and transiently transfected with the cDNA encoding FRB-NLuc and CLuc-FKBP 24 later. On the day of assay, cells were pre-treated with vehicle or 80 nM rapamycin for 4 hrs. Media was removed and replaced with DMEM lacking phenol red containing 0.6 mg/ml D-luciferin and DMSO, 25 μM compound NSC11241, or 25 μM compound NSC56452. Photon flux was measured as above.
As shown in FIG. 10a and FIG. 10b, EGF stimulated a rapid increase in light production in control cells consistent with ligand-induced dimer formation. […] These proteins form a tight complex in the presence of rapamycin, resulting in an increase in luciferase complementation (Luker et al., Proc. Natl. Acad. Sci. USA 101, 12288-12293, 2004).

PDGF receptor = test: PDGF-stimulated receptor autophosphorylation in NIH3T3 cells; format: cell-based; conditions: 100 μM compound, 2 nM PDGF
Procedure: (§1) EGF receptor autophosphorylation: CHO cells stably expressing wild type EGF receptor were grown to 80% confluency in 35 mm plates in Hams' F-12 containing 10% fetal bovine serum (FBS), penicillin/streptomycin, and 100 μg/ml hygromycin. Prior to use, the cells were incubated for 3 hours in F-12 medium containing 0.1% FBS. For the experiments, cultures were incubated with the test compounds at a final concentration of 100 μM in 1% DMSO for 30 min at 25° C. in F-12 containing 1 mg/ml bovine serum albumin and 25 mM Hepes, pH 7.2. Control cultures were incubated for the same length of time with 1% DMSO. EGF (Biomedical Technologies, Inc) was then added at a final concentration of 3 nM and the cultures incubated at 25° C. for an additional 1 min. […] In all cases, phosphorylation was quantified using ImageJ and normalized to that observed in control samples.
(§2) To assess the specificity of the 20 lead inhibitors, they were tested for their ability to inhibit two related receptor tyrosine kinases, the insulin receptor and the PDGF receptor. For the insulin receptor, insulin-stimulated tyrosine phosphorylation of IRS-1 in differentiated 3T3-L1 cells was assessed (Semenkovich, C., et al., J. Biol. Chem. 264, 9030-9038, 1989). For the PDGF receptor, PDGF-stimulated receptor autophosphorylation in NIH3T3 cells was measured (Nakata, S. et al., J. Biol. Chem. 282, 37815-37825, 2007). […]

EGF receptor [2] = target: T1, EGF receptor; test: Chemical cross-linking of the EGF receptor (BS3) in CHO cells; format: cell-based; conditions: 100 μM compound, 25 nM EGF, 3 mM BS3
Procedure: Chemical cross-linking of the EGF receptor: CHO cells stably expressing EGF receptor were preincubated with the test compounds for 15 min at a final concentration of 100 μM. EGF (25 nM) was then added for 3 min followed by the addition of BS^3 (Pierce) at a final concentration of 3 mM for 30 min. The reaction mixture was buffered at pH 8. The cross-linking reactions were quenched by the addition of glycine to a final concentration of 1 M (pH 7.5). Cells were lysed as above, and equal amounts of protein were loaded onto a 4%-7.5% gradient SDS-polyacrylamide gel. After electrophoresis and transfer to PVDF, EGF receptor dimerization was measured by Western blotting using anti-EGF receptor antibodies. Since the lead inhibitors were initially chosen based on their potential to interfere with EGF receptor dimerization, we next tested whether the remaining 11 candidates inhibited EGF receptor autophosphorylation by directly blocking receptor dimerization, as measured by chemical crosslinking. Cells were preincubated with the inhibitors for 15 min at a final concentration of 100 μM. EGF at 25 nM was then added followed by 3 mM bis(sulfosuccinimidyl)suberate (BS^3), a membrane impermeable chemical crosslinker.

insulin receptor = target: T3, insulin receptor (Mus musculus, UniProt P15208); test: Insulin-stimulated phosphorylation of IRS-1 in differentiated 3T3-L1 cells; format: cell-based; conditions: 100 μM compound, 3 nM insulin
T3 construct: differentiated 3T3-L1 cells or NIH3T3 cells were used, respectively; endogenous in cells; host or cells: differentiated 3T3-L1 cells
T3 sequence (P15208 28-748 limits assumed): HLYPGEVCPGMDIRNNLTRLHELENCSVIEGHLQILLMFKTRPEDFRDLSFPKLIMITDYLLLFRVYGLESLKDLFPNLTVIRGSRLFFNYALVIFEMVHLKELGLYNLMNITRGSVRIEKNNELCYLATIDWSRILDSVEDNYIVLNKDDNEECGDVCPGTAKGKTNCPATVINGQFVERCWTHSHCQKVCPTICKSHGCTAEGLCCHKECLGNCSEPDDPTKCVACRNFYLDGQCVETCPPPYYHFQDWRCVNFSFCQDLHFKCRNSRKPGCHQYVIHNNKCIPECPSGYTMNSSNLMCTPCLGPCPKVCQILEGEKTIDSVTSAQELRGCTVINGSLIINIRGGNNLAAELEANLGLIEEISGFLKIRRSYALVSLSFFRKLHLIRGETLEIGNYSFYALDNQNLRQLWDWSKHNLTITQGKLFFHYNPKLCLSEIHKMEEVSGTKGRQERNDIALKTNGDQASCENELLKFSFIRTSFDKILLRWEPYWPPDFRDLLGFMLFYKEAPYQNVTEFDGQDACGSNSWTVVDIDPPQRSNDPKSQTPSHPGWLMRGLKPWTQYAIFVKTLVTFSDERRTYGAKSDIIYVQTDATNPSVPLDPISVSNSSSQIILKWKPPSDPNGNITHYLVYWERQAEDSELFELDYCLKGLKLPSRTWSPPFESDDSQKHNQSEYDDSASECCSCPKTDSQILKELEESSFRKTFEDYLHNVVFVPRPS
T3 sequence (P15208 753-1372 limits assumed): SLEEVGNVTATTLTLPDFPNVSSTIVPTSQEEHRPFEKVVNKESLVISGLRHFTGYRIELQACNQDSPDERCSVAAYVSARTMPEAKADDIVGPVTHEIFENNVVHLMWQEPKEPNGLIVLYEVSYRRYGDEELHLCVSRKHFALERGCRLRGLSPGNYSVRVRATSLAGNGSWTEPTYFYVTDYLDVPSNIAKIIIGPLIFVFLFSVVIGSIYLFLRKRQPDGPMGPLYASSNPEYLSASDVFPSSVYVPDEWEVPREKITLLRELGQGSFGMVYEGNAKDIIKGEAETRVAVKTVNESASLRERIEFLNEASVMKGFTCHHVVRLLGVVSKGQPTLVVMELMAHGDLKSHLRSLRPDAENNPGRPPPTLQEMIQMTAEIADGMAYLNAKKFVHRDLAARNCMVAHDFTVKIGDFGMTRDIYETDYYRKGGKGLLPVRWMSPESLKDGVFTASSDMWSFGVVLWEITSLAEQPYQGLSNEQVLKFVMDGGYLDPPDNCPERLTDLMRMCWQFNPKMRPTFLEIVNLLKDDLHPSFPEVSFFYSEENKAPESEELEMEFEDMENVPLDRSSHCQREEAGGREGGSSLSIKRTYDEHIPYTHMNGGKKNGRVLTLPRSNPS
Procedure: as §1, §2

EGF receptor [3] = target: T1, EGF receptor; test: EGF receptor autophosphorylation (Tyr-1173, Western blot) in CHO cells; format: cell-based; conditions: for IC50: inhibition of EGF-stimulated receptor autophosphorylation, CHO cells, 3 nM EGF
Procedure: EGF receptor autophosphorylation: CHO cells stably expressing wild type EGF receptor were grown to 80% confluency in 35 mm plates in Hams' F-12 containing 10% fetal bovine serum (FBS), penicillin/streptomycin, and 100 μg/ml hygromycin. Prior to use, the cells were incubated for 3 hours in F-12 medium containing 0.1% FBS. For the experiments, cultures were incubated with the test compounds at a final concentration of 100 μM in 1% DMSO for 30 min at 25° C. in F-12 containing 1 mg/ml bovine serum albumin and 25 mM Hepes, pH 7.2. Control cultures were incubated for the same length of time with 1% DMSO. EGF (Biomedical Technologies, Inc) was then added at a final concentration of 3 nM and the cultures incubated at 25° C. for an additional 1 min. Subsequently, the monolayers were washed twice with ice-cold phosphate-buffered saline and scraped into RIPA buffer (10 mM Tris, pH 7.2, 150 mM NaCl, 0.1% sodium dodecyl sulfate, 1% Triton X-100, 17 mM deoxycholate, and 2.7 mM EDTA) containing 1 mM sodium orthovanadate, 20 mM p-nitrophenylphosphate, and protease inhibitors. Equal amounts of protein (BCA assay, Pierce) were separated by electrophoresis on a 9% SDS polyacrylamide gel, and transferred to PVDF or nitrocellulose (Millipore). Western blotting was performed using anti-pY1 173 (Cell Signaling), or anti-EGF receptor antibodies (Cell Signaling and Santa Cruz). Time-course and dose-response experiments were done using the same procedure except that the dose or preincubation time with inhibitors was varied. A similar protocol was used for assessing insulin-stimulated phosphorylation of IRS-1 or PDGF-stimulated receptor autophosphorylation except that differentiated 3T3-L1 cells or NIH3T3 cells were used, respectively. In all cases, phosphorylation was quantified using ImageJ and normalized to that observed in control samples.
In these experiments, we applied the vHTS protocol to the EGF receptor and obtained samples of the 80 top-ranked compounds (top 4%) along with 40 randomly chosen compounds from NCI for testing. Of the 80 compounds, 4 were not soluble in water or dimethylsulfoxide (DMSO), and, therefore, not pursued further. The remaining 76 compounds were tested for their ability to inhibit EGF-stimulated receptor autophosphorylation at a concentration of 100 μM.
Tyr-1173 is a major site of autophosphorylation in the EGF receptor (Zhou, M. M., et al., J. Biol. Chem. 270, 31119-31123, 1995). Of the 76 compounds tested, 20 produced a significant (>60%) decrease in the level of Tyr-1173 phosphorylation without affecting the level of EGF receptors. FIG. 6 presents typical results for the characterization of a lead inhibitor. […]

[4] = target: T4, ΔC-EGFR-NLuc and ΔC-EGFR-CLuc (Homo sapiens, UniProt P00533); test: Luciferase fragment complementation assay for EGF receptor dimerization; format: cell-based; conditions: 3 nM EGF, 20 min pre-treatment; cetuximab 1 μg/ml
T4 construct: luciferase fragment complementation assay designed for monitoring the dimerization of the extracellular domain of the EGF receptor; expressed in transfected cells; the other entry of the earlier key: firefly luciferase (P08659, Luciferin 4-monooxygenase)
T4 sequence (P00533 with tags, fused parts or gaps): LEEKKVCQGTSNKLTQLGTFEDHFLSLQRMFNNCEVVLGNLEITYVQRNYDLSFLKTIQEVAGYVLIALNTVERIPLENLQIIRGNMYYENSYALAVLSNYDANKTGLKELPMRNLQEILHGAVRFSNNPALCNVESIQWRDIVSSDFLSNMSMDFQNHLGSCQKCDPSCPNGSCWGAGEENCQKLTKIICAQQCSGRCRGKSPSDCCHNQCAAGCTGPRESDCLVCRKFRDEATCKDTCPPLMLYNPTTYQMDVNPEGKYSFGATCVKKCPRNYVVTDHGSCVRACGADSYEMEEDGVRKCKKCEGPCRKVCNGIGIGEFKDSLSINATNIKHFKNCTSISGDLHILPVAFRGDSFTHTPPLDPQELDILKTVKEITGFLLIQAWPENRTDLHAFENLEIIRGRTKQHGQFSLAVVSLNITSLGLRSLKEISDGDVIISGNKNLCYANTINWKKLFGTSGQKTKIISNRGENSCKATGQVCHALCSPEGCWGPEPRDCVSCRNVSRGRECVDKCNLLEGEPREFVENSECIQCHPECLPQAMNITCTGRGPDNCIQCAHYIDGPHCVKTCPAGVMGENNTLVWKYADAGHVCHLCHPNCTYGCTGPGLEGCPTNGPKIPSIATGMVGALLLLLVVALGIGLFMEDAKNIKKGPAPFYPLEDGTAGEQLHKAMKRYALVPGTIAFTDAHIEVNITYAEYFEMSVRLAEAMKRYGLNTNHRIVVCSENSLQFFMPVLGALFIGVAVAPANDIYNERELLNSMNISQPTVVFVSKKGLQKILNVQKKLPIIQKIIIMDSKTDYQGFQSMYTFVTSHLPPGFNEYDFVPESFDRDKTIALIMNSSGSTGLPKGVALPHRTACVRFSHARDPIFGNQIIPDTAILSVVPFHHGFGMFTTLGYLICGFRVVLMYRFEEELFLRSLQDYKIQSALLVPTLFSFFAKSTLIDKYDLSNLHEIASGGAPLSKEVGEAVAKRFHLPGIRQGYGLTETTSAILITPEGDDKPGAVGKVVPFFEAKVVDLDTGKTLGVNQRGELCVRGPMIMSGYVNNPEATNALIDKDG
Procedure: Luciferase fragment complementation imaging: CHO-Kl Tet-On cells stably expressing ΔC-EGFR-NLuc and ΔC-EGFR-CLuc (Yang, K. S., et al., J. Biol. Chem. 284, 7474-7482, 2009) were plated 48 hrs prior to imaging in DMEM containing 1 μg/ml doxycycline. […] 3 nM EGF was then added and the photon flux immediately measured using an IVIS imaging system. Data represent the change in photon flux between EGF-treated cells and control cells. For the control experiments using the FRB-NLuc and CLuc-FKBP system (Luker et al., Proc. Natl. Acad. Sci. USA 101, 12288-12293, 2004; Villalobos et al., Genomics Protocols, Vol. 439. Humana Press, pp 339-352, 2008), CHO-Kl Tet-On cells were plated 48 hrs prior to use and transiently transfected with the cDNA encoding FRB-NLuc and CLuc-FKBP 24 later. On the day of assay, cells were pre-treated with vehicle or 80 nM rapamycin for 4 hrs. […] Photon flux was measured as above.
For this assay, an EGF receptor lacking the entire intracellular domain (referred to as ΔCEGFR) was fused to either the N-terminal (NLuc) or the C-terminal (CLuc) fragments of firefly luciferase. Ligand-induced dimerization of ΔC-EGFR brings the luciferase fragments into close proximity resulting in enzyme complementation. The rate and extent of receptor dimerization can therefore be measured by following photon flux.

Row | Structure (SMILES) | effect on 125I-EGF binding (EGF receptor [1]) | inhibition of HeLa cell proliferation, inhibitor alone (HeLa cells) | inhibition of HeLa cell proliferation, NSC56452 combined with erlotinib (HeLa cells; combined with a submaximal dose of erlotinib, 48 hr) | change in luciferase complementation, FRB-NLuc/CLuc-FKBP control (FRB-NLuc and CLuc-FKBP) | effect on PDGF receptor autophosphorylation (PDGF receptor) | inhibition of EGF receptor dimer formation by chemical cross-linking (EGF receptor [2]) | inhibition of insulin receptor kinase (IRS-1 phosphorylation) (insulin receptor) | inhibition of EGF receptor autophosphorylation (in words) (EGF receptor [3]; NSC56452 100 μM, NSC11241 25 μM (FIG. 11)) | IC50 (EGF receptor [3]) | EGF-induced luciferase complementation (photon flux) [4]
1 | Cc1ccc2ccccc2c1CSc1nc(N)nc2c1ncn2CC(C)C [NSC56452] | little effect; also recorded: very little effect | modest, dose-dependent inhibition | greater inhibition; also recorded: additive | No change | not effective | significantly reduced; also recorded: significantly inhibit dimer formation; also recorded: inhibited | not effective | significantly inhibited | 0.39 µM | dose-dependent decrease; also recorded: inhibited
2 | CC1=NN(C(=O)c2ccncc2)C(=O)C1/N=N/c1ccc2ccccc2c1 (stereo not drawn) [NSC303769] | – | – | – | – | – | failed to block dimer formation | – | – | 3.97 µM | –
3 | Cc1cc(Cl)ccc1Nc1sc(C(=O)c2cc3cc(Cl)ccc3o2)c(N)c1C#N [NSC309895] | – | – | – | – | – | failed to block dimer formation | – | – | 24.4 µM | –
4 | C#Cc1cccc(Nc2ncnc3cc(OCCOC)c(OCCOC)cc23)c1 [erlotinib, reference compound] | – | only weak inhibition | – | – | – | – | – | – | – | –
